Test results taken from patent US20180171411A1, “GFRalpha1 AS A BIOMARKER FOR CISPLATIN-INDUCED CHEMORESISTANCE AND METASTASIS” (THE BOARD OF REGENTS OF THE UNIVERSITY OF TEXAS SYSTEM, priority 2015, published 2018).

Columns and labels:
Assay type in all cases: cell-based, human
[1] = test system: GFRα1-overexpressing MG-63 cells; assay: WST-1 cell viability of GFRα1-overexpressing osteosarcoma cells
Protocol: FIG. 3. GFRα1-induced autophagy enhances the chemoresistance of osteosarcoma cells induced by cisplatin. (a) Control and GFRα1-deficient MG-63 cells were transiently transfected with a mRFP-GFP tandem fluorescent-tagged LC3 (mRFP-GFP-LC3) vector and then treated with cisplatin (20μM) for 24 hr. Left, representative images of RFP-LC3 and GFP-LC3 puncta. Scale bar, 20 μm. Right, quantitative analysis of the number of yellow puncta and the number of RFP-LC3 puncta in the combined images. The values are represented as a mean±s.d.m. (n=3). ** denotes p<0.05 by t-test. (b) Control and GFRα1-deficient MG-63 cells were treated with cisplatin (20 μM) for 24 hr and then stained with acridine orange. Top, representative images of cells stained with acridine orange. Scale bar, 20 μm. Bottom, quantitative analysis of the number of AVOs. The values are represented as a mean±s.d.m. (n=3). ** denotes p<0.05 by t-test. (c) Control and GFRα1-deficient MG-63 cells were treated with cisplatin (20 μM) for 24 hr and then analyzed by TEM. Top, representative images of autophagic vacuoles (yellow arrows) detected after cisplatin treatment in control MG-63 cells. Scale bar, 100 nm. Bottom, quantitative analysis of the number of autophagic vacuoles. The values are represented as a mean±s.d.m. (n=3). ** denotes p<0.05 by t-test. (d) Immunoblot analysis of control and GFRα1-overexpressing osteosarcoma cell lysates with antibodies specific for GFRα1, LC3 and β-actin. […] (e) Quantitative analysis of the number of yellow puncta and the number of RFP-LC3 puncta in control and GFRα1-overexpressing MG-63 cells. […] Bottom, quantitative analysis of the number of AVOs. […] (h) Control and GFRα1-overexpressing MG-63 cells were treated with cisplatin (20 μM) for 24 hr and then analyzed by TEM. Top, representative images of autophagic vacuoles detected after cisplatin treatment in control and GFRα1-overexpressing MG-63 cells. […] Bottom, quantitative analysis of the number of autophagic vacuoles. […] Cell viability was measured using the WST-1 assay. […] Cell viability was measured using the WST-1 assay. […]

[2] = test system: GFRα1 expression in MG-63 and U-2 OS cells; assay: Immunoblot of GFRα1 expression after chemotherapeutic agents; details: doxorubicin 5 μM, cisplatin 20 μM, methotrexate 1 mM, 24 hr
Protocol: FIG. 1. Cisplatin induces GFRα1 expression in osteosarcoma cells. (a-c) Immunoblot analysis of osteosarcoma cell lysates with antibodies specific for GFRα1 and β-actin. (a) MG-63 and U-2 OS cells were treated with doxorubicin (5 μM), cisplatin (20 μM), or methotrexate (1 mM) for 24 hr. Immunoblot analysis of GFRα1 (left) and quantification of GFRα1 expression (right) after treatment of chemotherapeutic agents. (b) MG-63 and U-2 OS cells were treated with different concentrations of cisplatin for 24 hr. (c) MG-63 and U-2 OS cells were treated with cisplatin (20 μM) and collected at the indicated time. (d and e) Quantitative real-time PCR of GFRα1 mRNA expression after cisplatin treatment. Representative images (top) and quantitative analysis (bottom) of GFRα1 mRNA expression. The values are presented as a mean±s.d.m (n=3). ** denotes p<0.05 by t-test. (d) MG-63 and U-2 OS cells were treated with different concentrations of cisplatin for 24 hr. (e) MG-63 and U-2 OS cells were treated with cisplatin (20 μM) and collected at the indicated time.
(§1) Immunoblotting. Cells were washed with PBS and lysed in RIPA Buffer (Pierce, Rockford, Ill.). The protein content was determined using a dye-binding microassay (Bio-Rad, Hercules, Calif.), and 10-50 μg protein per lane was electrophoresed on 4-12% SDS polyacrylamide gels. Proteins were blotted onto Hybond ECL membranes (Amersham Pharmacia Biotech, Piscataway, N.J.). Two protein ladders were used for molecular weight determination (GenDEPOT, Barker, Tex.). The blotted proteins were detected using an enhanced chemiluminescence detection system (iNtRON, Seoul, Korea). Data were quantified and analyzed with Image-J software.

MG-63 cells = assay: Acridine orange staining of acidic vesicular organelles (AVOs); details: control MG-63 cells; cisplatin 20 μM, 24 hr
Protocol: FIG. 3. GFRα1-induced autophagy enhances the chemoresistance of osteosarcoma cells induced by cisplatin. (a) Control and GFRα1-deficient MG-63 cells were transiently transfected with a mRFP-GFP tandem fluorescent-tagged LC3 (mRFP-GFP-LC3) vector and then treated with cisplatin (20μM) for 24 hr. Left, representative images of RFP-LC3 and GFP-LC3 puncta. Scale bar, 20 μm. Right, quantitative analysis of the number of yellow puncta and the number of RFP-LC3 puncta in the combined images. The values are represented as a mean±s.d.m. (n=3). ** denotes p<0.05 by t-test. (b) Control and GFRα1-deficient MG-63 cells were treated with cisplatin (20 μM) for 24 hr and then stained with acridine orange. […] Bottom, quantitative analysis of the number of AVOs. […] (c) Control and GFRα1-deficient MG-63 cells were treated with cisplatin (20 μM) for 24 hr and then analyzed by TEM. Top, representative images of autophagic vacuoles (yellow arrows) detected after cisplatin treatment in control MG-63 cells. […] Bottom, quantitative analysis of the number of autophagic vacuoles. […] (e) Quantitative analysis of the number of yellow puncta and the number of RFP-LC3 puncta in control and GFRα1-overexpressing MG-63 cells. […] Bottom, quantitative analysis of the number of AVOs. […] (h) Control and GFRα1-overexpressing MG-63 cells were treated with cisplatin (20 μM) for 24 hr and then analyzed by TEM. […]

[3] = test system: APE1 expression in osteosarcoma cells; assay: Immunoblot of APE1 expression after cisplatin; details: different concentrations of cisplatin, 24 h
Protocol: FIG. 10. GFRα1-mediated chemoresistance of osteosarcoma cells is independent of APE and RET signaling. (a) Immunoblot analysis of MG-63 cell lysates with antibodies specific for APE, RET and β-actin. MG-63 and U-2 OS cells were treated with different concentrations of cisplatin for 24 h. The cell lysates of GDNF-treated MIA PaCa-2 were used as positive controls for APE and RET expression.
as §1

## Cn1cnc(N)c2ncnc1-2 [3-MA, 3-methyladenine]
[1]; with DMSO, 3-MA or Baf, then cisplatin 20 μM 24 hr
  increase of cell proliferation in GFRα1 overexpressing cells: blocked

## N.N.[Cl][Pt][Cl] [cisplatin, Cis-Diamineplatinum(II) dichloride]
[2]
  level of GFRα1 expression: significantly increased
MG-63 cells
  AVO-positive cells: significantly increased
[3]
  level of APE1 expression: not affected

B1: GDNF: glial cell line-derived neurotrophic factor, the major ligand of GFRα1 (protein, UniProt P39905 78-211, looked up)
Glial cell line-derived …: SPDKQMAVLPRRERNRQAAAANPENSRGKGRRGQRGKNRGCVLTAIHLNVTDLGLGYETKEELIFRYCSGSCDAAETTYDKILKNLSRNRRLVSDKVGQACCRPIAFDDDLSFLDDNLVYHILRKHSAKRCGCI
[1]; Cisplatin+GDNF (50 ng/ml), 24 h
  GFRα1-mediated cell survival after cisplatin treatment: did not have an effect
